In US6908942B2, “6-amino-2,2-dimethyl-3,4,6-trisubstituted benzopyran derivatives and their construction by parallel synthesis on solid-phase” (Korea Research Institute of Chemical Technology, priority 2002, dated 2005) one finds IC50 data, which are given here for 52 molecules.

The subject of the assay is lipid peroxidation induced by iron. As to the kind of experiment: Inhibitory effect on iron-induced lipid peroxidation in rat brain homogenate (MDA measurement, N-methyl-2-phenylindole, Bioxytech LPO-586 Kit). It is filed as biochemical. Particulars: FeCl2 400 μM, 30 min at 37° C., decrease of MDA vs DMSO control, absorption at 586 nm. How it is done:
The inhibitory effect of the present compounds on lipid peroxidation induced by iron was evaluated as follows:
Rat brain was homogenized in Krebs buffer (15 mM HEPES, 10 mM glucose, 140 mM NaCl, 3.6 mM KCl, 1.5 mM CaCl2, 1.4 mM KH2PO4 and 0.7 mM MgCl, pH 7.4) and centrifuged at 12,000 rpm to obtain the supernatant serving as a raw material of lipid. To the brain homogenates, FeCl^2 was added to give a final concentration of 400 μM and allowed to stand for 30 min at 37° C. for promoting oxidation. Each of the compounds to be tested was added to give a concentration of 12.5 μM and a control group was solely added with dimethylsulfoxide (DMSO).
When iron is added to brain homogenates, oxidation is promoted to increase the amount of malondialdehyde (MDA) as lipid peroxidation product. Therefore, in this Example, the level of lipid peroxidation was evaluated according to MDA measurement method. In general MDA measurement, the test sample is reacted with TBA (2-thiobarbituric acid) and the absorbance at 530 nm was measured. However, since such process includes a boiling step, it is unsuitable for dealing with test samples in large quantity. Therefore, in this Example, N-methyl-2-phenylindole was used as a color developing reagent in place of TBA so as to avoid boiling step. […] The inhibitory effect on lipid peroxidation of test compounds was evaluated by calculating the decreased level of MDA in percentage based on the amount of MDA in the control group. For the test compounds showing more than 80% inhibitory effect, the concentration-lipid peroxidation inhibition curves were plotted with reference to the decrease rate of MDA amount based on the amount of MDA in the control group and their IC50 values was calculated through least linear regression analysis.
In addition, the representative antioxidants commercialized such as Promethazine, Trolox, Probucol and N-propyl gallate were examined in terms of 50% inhibition concentration (IC50) according to the above procedure and the results are shown in Table 4.
`C=CCOC1C(OC(C)C)c2cc(NCc3ccc(F)cc3)ccc2OC1(C)C` (stereo not shown) [Compound 5-495] gave an IC50 of 2.04 µM.

Regarding `C/C=C/COC1C(OCCCC)c2cc(NCc3ccc(F)cc3)ccc2OC1(C)C` (stereo not shown) [Compound 5-510], the midpoint of inhibition, the IC50, lay at 9.45 µM.

`C=CCOC1C(OCCCC)c2cc(NCc3ccc(F)cc3)ccc2OC1(C)C` (stereo not shown) [Compound 5-511] returned an IC50 of 0.12 µM.

On to `C#CCOC1C(OCCCC)c2cc(NCc3ccc(F)cc3)ccc2OC1(C)C` (stereo not shown) [Compound 5-512], for which the IC50 worked out at 3.6 µM.

`CC1(C)Oc2ccc(NCc3ccc(F)cc3)cc2C(OCc2ccccc2)C1OCc1ccc(F)cc1` (stereo not shown) [Compound 5-514] yielded an IC50 of 2.39 µM.

Take `CC1(C)Oc2ccc(NCc3ccc(F)cc3)cc2C(OCc2ccccc2)C1OCc1cccc(Cl)c1` (stereo not shown) [Compound 5-519]: the IC50 is 4.6 µM.

As to `COC1c2cc(NCc3ccc(C)cc3)ccc2OC(C)(C)C1OCc1ccc(F)cc1` (stereo not shown) [Compound 5-562], inhibition was half-maximal at 6.47 µM (IC50).

As to `COC1c2cc(NCc3ccc(C)cc3)ccc2OC(C)(C)C1OCc1cccc(F)c1` (stereo not shown) [Compound 5-564], the IC50 turned out to be 4.33 µM. This IC50 and that of the molecule before are within 1.5-fold of each other.

Regarding `COC1c2cc(NCc3ccc(C)cc3)ccc2OC(C)(C)C1OCc1ccccc1Cl` (stereo not shown) [Compound 5-566], the IC50 is 5.73 µM.

With `CNc1ccc2c(c1)C(OC)C(OC(=O)CC(C)(C)C)C(C)(C)O2` (stereo not shown) [Compound 5-1482], the IC50 turned out to be 5.27 µM.

The molecule `CNc1ccc2c(c1)C(OC)C(OC(=O)C1CCCCC1)C(C)(C)O2` (stereo not shown) [Compound 5-1483] displayed a concentration for half-maximal inhibition (IC50) of 2.39 µM.

Molecule `CNc1ccc2c(c1)C(OC)C(OC(=O)c1cccs1)C(C)(C)O2` (stereo not shown) [Compound 5-1489] gave an IC50 of 3.33 µM. This IC50 and that of the molecule before are within 1.5-fold of each other.

`CNc1ccc2c(c1)C(OC)C(OC(=O)c1ccco1)C(C)(C)O2` (stereo not shown) [Compound 5-1490]: the IC50 was 3.04 µM.

Molecule `CCCCOC1c2cc(NC)ccc2OC(C)(C)C1OC(=O)c1ccccc1` (stereo not shown) [Compound 5-1515] came in with an IC50 of 2.23 µM.

The molecule `CCCCOC1c2cc(NC)ccc2OC(C)(C)C1OC(=O)c1ccc(C)cc1` (stereo not shown) [Compound 5-1516] yielded a concentration for half-maximal inhibition (IC50) of 6.34 µM.

With `CCCCOC1c2cc(NC)ccc2OC(C)(C)C1OC(=O)c1ccco1` (stereo not shown) [Compound 5-1520], half-maximal inhibition (IC50) was put at 3.1 µM.

As to `CCNc1ccc2c(c1)C(OC)C(OC(=O)CC(C)(C)C)C(C)(C)O2` (stereo not shown) [Compound 5-1552], half-maximal inhibition (IC50) required 5.43 µM.

`CCNc1ccc2c(c1)C(OC)C(OC(=O)c1ccc(F)cc1)C(C)(C)O2` (stereo not shown) [Compound 5-1558] registered an IC50 of 3.37 µM.

`CCNc1ccc2c(c1)C(OC)C(OC(=O)c1ccco1)C(C)(C)O2` (stereo not shown) [Compound 5-1560]: the IC50 was 2.31 µM.

In the case of `CCNc1ccc2c(c1)C(OCC)C(OC(C)=O)C(C)(C)O2` (stereo not shown) [Compound 5-1561], the midpoint of inhibition, the IC50, lay at 2.89 µM. The IC50 values of the last two molecules are within 1.5-fold of each other.

Regarding `CCNc1ccc2c(c1)C(OCC)C(OC(=O)CC(C)(C)C)C(C)(C)O2` (stereo not shown) [Compound 5-1562], half-maximal inhibition (IC50) required 3.03 µM. The IC50 values of the last two molecules are within 1.5-fold of each other.

As for `CCNc1ccc2c(c1)C(OCC)C(OC(=O)C1CCCCC1)C(C)(C)O2` (stereo not shown) [Compound 5-1563], the IC50 worked out at 2.05 µM.

Molecule `CCNc1ccc2c(c1)C(OCC)C(OC(=O)c1ccc(F)cc1)C(C)(C)O2` (stereo not shown) [Compound 5-1568] registered an IC50 of 4.09 µM.

With `CCNc1ccc2c(c1)C(OCC)C(OC(=O)c1cccs1)C(C)(C)O2` (stereo not shown) [Compound 5-1569], the IC50 was 3.41 µM.

`CCNc1ccc2c(c1)C(OCC)C(OC(=O)c1ccco1)C(C)(C)O2` (stereo not shown) [Compound 5-1570] returned an IC50 of 3.03 µM.

On to `COC1c2cc(NCc3ccc(F)cc3)ccc2OC(C)(C)C1OC(=O)CC(C)(C)C` (stereo not shown) [Compound 5-1762], for which the IC50 turned out to be 1.8 µM.

`COC1c2cc(NCc3ccc(F)cc3)ccc2OC(C)(C)C1OC(=O)c1ccccc1` (stereo not shown) [Compound 5-1765] displayed an IC50 of 5.13 µM.

`COc1ccc(C(=O)OC2C(OC)c3cc(NCc4ccc(F)cc4)ccc3OC2(C)C)cc1` (stereo not shown) [Compound 5-1767] registered an IC50 of 2.63 µM.

On to `COC1c2cc(NCc3ccc(F)cc3)ccc2OC(C)(C)C1OC(=O)c1ccc(F)cc1` (stereo not shown) [Compound 5-1768], for which the IC50 came to 2.73 µM.

In turn, `COC1c2cc(NCc3ccc(F)cc3)ccc2OC(C)(C)C1OC(=O)c1cccs1` (stereo not shown) [Compound 5-1769] registered an IC50 of 5.97 µM.

In turn, `COC1c2cc(NCc3ccc(F)cc3)ccc2OC(C)(C)C1OC(=O)c1ccco1` (stereo not shown) [Compound 5-1770] returned an IC50 of 3.11 µM.

`CCCCOC1c2cc(NCc3ccc(F)cc3)ccc2OC(C)(C)C1OC(=O)c1ccc(OC)cc1` (stereo not shown) [Compound 5-1797]: half-maximal inhibition (IC50) required 3.56 µM. The IC50 values of the last two molecules are within 1.5-fold of each other.

`CCCCOC1c2cc(NCc3ccc(F)cc3)ccc2OC(C)(C)C1OC(=O)c1cccs1` (stereo not shown) [Compound 5-1799] came in with an IC50 of 6.01 µM. This IC50 is about 1.7-fold higher than that of the molecule before.

For the molecule `CCCCOC1c2cc(NCc3ccc(F)cc3)ccc2OC(C)(C)C1OC(=O)c1ccco1` (stereo not shown) [Compound 5-1800], the IC50 was 3.9 µM.

In the case of `CC(C)(C)CC(=O)OC1C(OCc2ccccc2)c2cc(NCc3ccc(F)cc3)ccc2OC1(C)C` (stereo not shown) [Compound 5-1802], the IC50 worked out at 4.12 µM. The IC50 values of the last two molecules are within 1.5-fold of each other.

Take `Cc1ccc(C(=O)OC2C(OCc3ccccc3)c3cc(NCc4ccc(F)cc4)ccc3OC2(C)C)cc1` (stereo not shown) [Compound 5-1806]: the IC50 was 5.85 µM. The IC50 values of the last two molecules are within 1.5-fold of each other.

`CC1(C)Oc2ccc(NCc3ccc(F)cc3)cc2C(OCc2ccccc2)C1OC(=O)c1ccc(F)cc1` (stereo not shown) [Compound 5-1808] had an IC50 of 3.97 µM.

`CC1(C)Oc2ccc(NCc3ccc(F)cc3)cc2C(OCc2ccccc2)C1OC(=O)c1cccs1` (stereo not shown) [Compound 5-1809] gave an IC50 of 6.36 µM. This IC50 is about 1.6-fold higher than that of the molecule before.

`CC1(C)Oc2ccc(NCc3ccc(F)cc3)cc2C(OCc2ccccc2)C1OC(=O)c1ccco1` (stereo not shown) [Compound 5-1810] showed a half-inhibitory concentration (IC50) of 4.34 µM.

On to `COC1c2cc(NCc3ccc(C)cc3)ccc2OC(C)(C)C1OC(C)=O` (stereo not shown) [Compound 5-1831], for which 2.71 µM corresponded to half-maximal inhibition (IC50).

`COC1c2cc(NCc3ccc(C)cc3)ccc2OC(C)(C)C1OC(=O)CC(C)(C)C` (stereo not shown) [Compound 5-1832] yielded an IC50 of 1.09 µM. Compared with the last molecule, the IC50 is about 2.5-fold lower.

For `COC1c2cc(NCc3ccc(C)cc3)ccc2OC(C)(C)C1OC(=O)C=C(C)C` (stereo not shown) [Compound 5-1834], the IC50 came out at 1.29 µM.

In turn, `COC1c2cc(NCc3ccc(C)cc3)ccc2OC(C)(C)C1OC(=O)c1ccccc1` (stereo not shown) [Compound 5-1835] registered an IC50 of 1.14 µM. The IC50 values of the last two molecules are within 1.5-fold of each other.

In turn, `COC1c2cc(NCc3ccc(C)cc3)ccc2OC(C)(C)C1OC(=O)c1ccc(C)cc1` (stereo not shown) [Compound 5-1836] yielded an IC50 of 1.16 µM. The IC50 values of the last two molecules are within 1.5-fold of each other.

For the molecule `COc1ccc(C(=O)OC2C(OC)c3cc(NCc4ccc(C)cc4)ccc3OC2(C)C)cc1` (stereo not shown) [Compound 5-1837], inhibition was half-maximal at 4.25 µM (IC50).

With `COC1c2cc(NCc3ccc(C)cc3)ccc2OC(C)(C)C1OC(=O)c1ccc(F)cc1` (stereo not shown) [Compound 5-1838], the IC50 worked out at 1.31 µM.

The molecule `COC1c2cc(NCc3ccc(C)cc3)ccc2OC(C)(C)C1OC(=O)c1cccs1` (stereo not shown) [Compound 5-1839] gave an IC50 of 1.07 µM. The IC50 values of the last two molecules are within 1.5-fold of each other.

The molecule `CC1(C)Oc2ccc(NCc3ccc(F)cc3)cc2C(OCc2ccccc2)C1OC(=O)c1ccco1` (stereo not shown) [Compound 5-1840] yielded an IC50 of 1.03 µM.

`CCCOC(=O)c1cc(O)c(O)c(O)c1` [N-propyl gallate, reference compound]: the IC50 was 25 µM. This IC50 is about 24-fold higher than that of the molecule before.

The molecule `CC(C)(Sc1cc(C(C)(C)C)c(O)c(C(C)(C)C)c1)Sc1cc(C(C)(C)C)c(O)c(C(C)(C)C)c1` [Probucol, reference compound] came in with an IC50 of 18.2 µM.

With `CC(CN1c2ccccc2Sc2ccccc21)N(C)C` (stereo not shown) [Promethazine, reference compound], the IC50 turned out to be 10.2 µM.

As to `Cc1c(C)c2c(c(C)c1O)CCC(C)(C(=O)O)O2` (stereo not shown) [Trolox, reference compound], the IC50 is 24.6 µM.

A word on the IC50: it is the midpoint of a concentration-inhibition curve.
